In brackets after ≈: the same amount, converted by molar mass. Read-outs that look alike come from different tables or passages of the source.
What was measured:
[1] = Determination of aqueous (kinetic) solubility; type: physicochemical; conditions: aqueous buffer, kinetic from dmso stock, buffer pH 7.4
Procedure: The mixture was vortexed for 1 hour and equilibrated overnight at room temperature. The mixture was filtered through a saturated filter and the filtrate was analyzed by LC/MS/MS.
For the purpose of Table 5, solubility of each compound is expressed as follows: […]

[2] = Half-life in human liver microsomes (HLM); conditions: pH 7.4
Procedure: Test compounds (1 μM) are incubated with 3.3 mM MgCl2 and 0.78 mg/mL HLM (HL101) in 100 mM potassium phosphate buffer (pH 7.4) at 37° C. on the 96-deep well plate. The reaction mixture is split into two groups, a non-P450 and a P450 group. NADPH is only added to the reaction mixture of the P450 group. An aliquot of samples of P450 group is collected at 0, 10, 30, and 60 min time point, where 0 min time point indicated the time when NADPH is added into the reaction mixture of P450 group. […] Collected aliquots are extracted with acetonitrile solution containing an internal standard. […] The compound concentration in supernatant is measured by LC/MS/MS system.
The half-life value is obtained by plotting the natural logarithm of the peak area ratio of compounds/internal standard versus time. The slope of the line of best fit through the points yields the rate of metabolism (k). This is converted to a half-life value using following equations:

[3] = Pharmacokinetic evaluation following intravenous and oral administration in rats (oral bioavailability); type: in vivo, rat; conditions: male Sprague-Dawley rats, PO 1 to 5 mg/kg vs IV 1 mg/kg, AUCinf dose-normalized
Procedure: Male Sprague-Dawley rats are acclimatized for at least 24 hours prior to experiment initiation. During acclimation period, all animals receive food and water ad libitum. However, food but not water is removed from the animal's cages at least 12 hours before initiation of the experiment. During the first 3 hours of experimentation, the animals receive only water ad libitum. At least three animals each are tested for intravenous and oral dosage. For intravenous formulation, compounds were dissolved (0.25 to 1 mg/mL) in a mixture of 3% dimethyl sulfoxide, 40% PEG 400 and the rest percentage of 40% Captisol in water (w/v). The animals are weighed before dosing. The determined body weight is used to calculate the dose volume for each animal.
Dose volume (mL/kg)=1 mg/kg/formulation concentration (mg/mL)
In instances where the formulation concentrations were less than 0.5 mg/mL, the dosing volume is about 2 mL/kg.
PO rats are typically dosed through oral gavage following the same dose volume formula as IV to achieve a dose level of 1 to 5 mg/kg. […] About 250 uL of blood is obtained at each time point from the animal. Equal volumes of 0.9% normal saline are replaced to prevent dehydration. The whole blood samples are maintained on ice until centrifugation. Blood samples are then centrifuged at 14,000 rpm for 10 minutes at 4° C. and the upper plasma layer transferred into a clean vial and stored at −80° C. The resulting plasma samples are then analyzed by liquid chromatography-tandem mass spectrometry. Following the measurement of plasma samples and dosing solutions, plasma concentration-time curve is plotted. Plasma exposure is calculated as the area under the concentration-time curve extrapolated to time infinite (AUinf). The AUCinf is averaged and the oral bioavailability (% F) for individual animal is calculated as:
AUCinf (PO)/AUCinf (IV), normalized to their respective dose levels. The % F is reported as the mean % F of all animals dosed orally with the compound of the invention at the specified level (see Table 4 below).
For the purpose of Table 4, oral bioavailability of each compound is expressed as follows: […]

P2X7 receptor = biological target: T1, P2X7 receptor (Homo sapiens, UniProt Q99572); experiment: IL-1β release assay in differentiated THP-1 cells stimulated with BzATP (Example 9); type: cell-based; conditions: differentiated THP-1 cells, BzATP 250 uM, read-out: IL-1β % Inhib. @ 0.3 or 0.1 uM
T1 construct: host or cells: THP-1 cells differentiated with LPS and IFN-γ
T1 sequence (Q99572 1-595): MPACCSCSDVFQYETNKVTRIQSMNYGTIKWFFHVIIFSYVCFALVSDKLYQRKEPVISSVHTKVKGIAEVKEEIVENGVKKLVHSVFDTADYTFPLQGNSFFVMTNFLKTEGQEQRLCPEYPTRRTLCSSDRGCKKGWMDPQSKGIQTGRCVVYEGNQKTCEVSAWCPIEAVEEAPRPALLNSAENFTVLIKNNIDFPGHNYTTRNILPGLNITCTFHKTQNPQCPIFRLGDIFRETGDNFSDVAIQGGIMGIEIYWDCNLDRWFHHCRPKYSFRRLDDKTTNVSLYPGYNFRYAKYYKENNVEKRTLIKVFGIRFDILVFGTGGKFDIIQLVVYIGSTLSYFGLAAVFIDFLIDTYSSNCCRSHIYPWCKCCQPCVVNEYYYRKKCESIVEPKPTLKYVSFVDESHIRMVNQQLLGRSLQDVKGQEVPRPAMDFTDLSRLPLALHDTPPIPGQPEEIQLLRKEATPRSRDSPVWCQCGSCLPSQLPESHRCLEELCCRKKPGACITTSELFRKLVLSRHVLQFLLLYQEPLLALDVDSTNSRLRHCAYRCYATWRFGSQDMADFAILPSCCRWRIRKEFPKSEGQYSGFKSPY
Summary of the method: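 THP-1 cells differentiated 16 h with 100 ng/mL LPS and 100 ng/mL IFN-γ, primed 2 h with fresh LPS, pretreated 30 min with compound, then stimulated 45 min with 250 uM BzATP (final). Supernatant IL-1β measured by ELISA; background-adjusted percent inhibition fitted to a four-parameter logistic for IC50.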

Row | SMILES | solubility [1] [µM] | half-life at 1 μM [2] [h] | Oral Bioavailability F (%) [3] | inhibition at 0.3 µM (P2X7 receptor; 0.3 μM compound, "+" symbols) [%] | inhibition at 0.3 µM (P2X7 receptor; "+" symbols = compound at 0.3 μM) [%] | inhibition at 0.3 µM (P2X7 receptor; 0.3 μM compound (symbols +)) [%]
1 | C[C@@H](C(N)=O)n1ccc2c(NC(=O)Cc3ccc(C(F)(F)F)cc3)cccc2c1=O [Compound 351] | < 25 | 2.36 | + (0-25% F) | > 76 |  | 
2 | C[C@H](C(=O)Nc1cccc2c(=O)n([C@H](C)C(N)=O)ccc12)c1ccc(Cl)c(Cl)c1 [Compound 268] | 51 to 75 (≈ 22 to 32.4 µg/mL) | 1.36 | ++ (26-50% F) | > 76 |  | 
3 | C[C@H](CO)n1ccc2c(NC(=O)Cc3ccc(Cl)c(Cl)c3)c(Cl)ccc2c1=O [Compound 376] | > 75 | 0.9 | ++ (26-50% F) | > 76 |  | 
4 | C[C@H](CO)n1ccc2c(NC(=O)Cc3ccc(C(F)(F)F)c(F)c3)cccc2c1=O [Compound 335] | > 75 | 0.93 | ++ (26-50% F) | > 76 |  | 
5 | C[C@H](CO)n1ccc2c(NC(=O)Cc3ccc(Cl)c(F)c3)cccc2c1=O [Compound 330, 2-(4-Chloro-3-fluorophenyl)-N-[2-((R)-2-hydroxy-1-methyl-ethyl)-1-oxo-1,2-dihydro-isoquinolin-5-yl]-acetamide] | > 75 | 1.41 | ++++ (>75% F) | > 76 |  | 
6 | C[C@H](CO)n1ccc2c(NC(=O)Cc3ccc(C(F)(F)F)c(F)c3)c(Cl)ccc2c1=O [Compound 375, N-[6-Chloro-2-((R)-2-hydroxy-1-methyl-ethyl)-1-oxo-1,2-dihydro-isoquinolin-5-yl]-2-(3-fluoro-4-trifluoromethyl-phenyl)-acetamide] | > 75 | 1.63 | ++++ (>75% F) | > 76 |  | 
7 | O=C(Cc1ccc(C(F)(F)F)c(F)c1)Nc1cccc2c(=O)n(CCO)ccc12 [Compound 357] | < 25 | 1.54 | ++++ (>75% F) | > 76 |  | 
8 | CC(C(=O)Nc1cccc2c(=O)n([C@H](C)C(N)=O)ccc12)c1ccc(Cl)c(Cl)c1 (some centres unmarked) [Compound 254] | 26 to 50 (≈ 11.2 to 21.6 µg/mL) | 1.46 | + (0-25% F) | > 76 |  | 
9 | C[C@H](CO)n1ccc2c(NC(=O)Cc3ccc(F)c(C(F)(F)F)c3)cccc2c1=O [Compound 339] | > 75 | 0.93 | +++ (51-75% F) | > 76 |  | 
10 | C[C@@H](C(N)=O)n1ccc2c(NC(=O)Cc3ccc(Cl)c(C(F)(F)F)c3)cccc2c1=O [Compound 353] | < 25 | 1.01 | + (0-25% F) | > 76 |  | 
11 | Cc1ccc2c(=O)n(CCO)ccc2c1NC(=O)Cc1ccc(C(F)(F)F)c(F)c1 [Compound 400] | > 75 | 3.73 | ++ (26-50% F) |  | > 76 | 
12 | C[C@H](C(=O)Nc1cccc2c(=O)n([C@H](C)C(N)=O)ccc12)c1ccc(Cl)cc1 [Compound 263] | > 75 | 2.31 | ++ (26-50% F) | > 76 |  | 
13 | O=C(Cc1ccc(Cl)c(C(F)(F)F)c1)Nc1cccc2c(=O)n(C(CO)CO)ccc12 [Compound 81, 2-(4-Chloro-3-trifluoromethyl-phenyl)-N-[2-(2-hydroxy-1-hydroxymethyl-ethyl)-1-oxo-1,2-dihydro-isoquinolin-5-yl]-acetamide] | > 75 | 0.72 | + (0-25% F) |  |  | > 76
14 | C[C@H](CO)n1ccc2c(NC(=O)Cc3ccc(C(F)(F)F)cc3F)cccc2c1=O [Compound 359] | < 25 | 1.16 | ++++ (>75% F) | > 76 |  | 

Reference: patent publication US20110092476A1, “Bicycloheteroaryl compounds as P2X7 modulators and uses thereof” (Renovis, Inc., priority 2006, published 2011)
